In patent US6403604B1, “Nitrogen-based camptothecin derivatives” (California Pacific Medical Center, priority 2001, dated 2002):
Read-outs that look alike come from different tables or passages of the source.

Experiments:
HCT116 cells = assay type: cell-based; conditions: 72 hours drug incubation, colonies counted after 7 days
Description: This example provides directions for growing cells and testing compounds of the invention for their effect on the growth of the cells.
Cell Colony Formation Assay
Four hundred cells (HCT 116, PC-3) or five hundred cells (VM46) were plated in 60 mm Petri dishes containing 2.7 ml of medium (modified McCoy's 5a medium) containing 10% fetal bovine serum and 100 units/ml penicillin and 100 mg/ml streptomycin. The cells were incubated in a CO2 incubator at 37° C. for 5 hours for attachment to the bottom of Petri dishes. Drugs were made fresh in medium at ten times the final concentration, and then 0.3 ml of this stock solution was added to the 2.7 ml of medium in the dish. The cells were then incubated with drugs for 72 hours at 37° C. At the end of the incubation the drug-containing media were decanted, the dishes were rinsed with 4 ml of Hank's Balance Salt Solution (HBSS), 5 ml of fresh medium was added, and the dishes were returned to the incubator for colony formation.
Values of ID50 (the drug concentration producing 50% inhibition of colony 5 formation) may be determined for each tested compound.

C3H/HeJ mice = test: in vivo
Description: (§1) This example provides directions for performing in vivo toxicity tests of the compounds of the invention on C3H/HeJ mice.
(§2) Acute toxicities of the compounds of this invention are evaluated on C3H/HeJ mice (body weight 18-22 g). The MTD40 (maximum tolerated dose at day 40) values are determined by the standard procedure described by Gad and Chengelis (see, for example, “Acute Toxicology Testing,” 2nd Ed., Shayne O. Gad and Christopher P. Chengelis, pp. 186-195 (Academic Press).) In the consecutive type studies, 2 mice are dosed at low and moderate doses of 40 and 100 mg/kg. If no severe and irreversible toxicity (euthanasia is required) occurs at these doses, a new pair of animals is initiated at 180 mg/kg, which is 1.8 times higher than 100 mg/kg. Sequential dosages (about 3 doses on 3 pairs of animals, i.e. 2 mice for each drug dose) are increased by a factor of 1.8 until severe and irreversible toxicity (euthanasia is required) occurred. Then another pair of animals is initiated at the highest nonlethal dosage, and successive dosages were increased by a factor of 1.15. The result of this exercise is two dosages, one apparently nonlethal and the other lethal if severe and irreversible toxicity occurs and euthanasia is required, separated by a factor of 1.15. Six mice are dosed at each dosage. If no severe and irreversible toxicity occurs at the lower dosage and at least one with severe and irreversible toxicity occurs at the higher dose, then the lower dose is considered to be the MTD. The compounds of this invention are administered to C3H/HeJ mice by intraperitoneal injection. Drug toxicity is evaluated on mice checked daily for 45 days. The toxicity parameters reported will be the MTD40.

[1] = cited from earlier work
in vivo = conditions: C3H/HeJ, mouse, in vivo, ip
Description: as §1, §2

[2] = system: mouse leukemia L1210 system; conditions: cited from earlier work
[3] = maximum tolerated dose, C3H/HeJ mice, intraperitoneal injection

SMILES: CC[C@@]1(OC(=O)CCN2C(=O)c3ccccc3C2=O)C(=O)OCc2c1cc1n(c2=O)Cc2cc3ccccc3nc2-1 [000503 (1), Camptothecin-20S-Ester of 3-Phthalimidopropionic Acid]
- Survival (%) of HCT116 (HCT116 cells; 10 nM): 95.24%
- Survival (%) of HCT116 (HCT116 cells; 100 nM): 0%
- MTD (C3H/HeJ mice; [3]): 150 mg/kg

SMILES: CC[C@@]1(OC(=O)CCN2CCN(c3cccc(C(F)(F)F)c3)CC2)C(=O)OCc2c1cc1n(c2=O)Cc2cc3ccccc3nc2-1 [001101 (6), Camptothecin-20S-ester of 3-[4-(3-trifluoromethylphenyl)-1-piperazinyl]-propionic acid]
- Survival (%) of HCT116 (HCT116 cells; 1 nM): 100%
- Survival (%) of HCT116 (HCT116 cells; 10 nM): 0%
- Survival (%) of HCT116 (HCT116 cells; 100 nM): 0%
- MTD (C3H/HeJ mice; [3]): 150 mg/kg

SMILES: CC[C@@]1(OC(=O)CCN2C(=O)c3cccc4c([N+](=O)[O-])ccc(c34)C2=O)C(=O)OCc2c1cc1n(c2=O)Cc2cc3ccccc3nc2-1 [001128 (4), Camptothecin-20S-Ester of 3-(4-Nitro-1,8-Naphthalimide)propionic Acid]
- MTD (C3H/HeJ mice; mouse, in vivo, ip): 150 mg/kg

SMILES: CC[C@@]1(OC(=O)CCN2CCN(c3cccc(OC)c3)CC2)C(=O)OCc2c1cc1n(c2=O)Cc2cc3ccccc3nc2-1 [001129 (8), Camptothecin-20S-ester of 3-[4-(3-methoxyphenyl)-1-piperazinyl]propionic Acid]
- Survival (%) of HCT116 (HCT116 cells; 1 nM): 73.26%
- Survival (%) of HCT116 (HCT116 cells; 10 nM): 0%
- Survival (%) of HCT116 (HCT116 cells; 100 nM): 0%
- MTD (C3H/HeJ mice; [3]): 150 mg/kg

SMILES: CC[C@@]1(OC(=O)CCN2CCN(Cc3ccccc3)CC2)C(=O)OCc2c1cc1n(c2=O)Cc2cc3ccccc3nc2-1 [001204 (7), Camptothecin-20s-ester of 3-[(4-benzyl)-1-piperazinyl]propionic Acid]
- Survival (%) of HCT116 (HCT116 cells; 1 nM): 64.04%
- Survival (%) of HCT116 (HCT116 cells; 10 nM): 0%
- Survival (%) of HCT116 (HCT116 cells; 100 nM): 0%

SMILES: CCC1(OC(=O)CCN2C(=O)C=CC2=O)C(=O)OCc2c1cc1n(c2=O)Cc2cc3ccccc3nc2-1 (stereo not drawn) [010104 (2), Camptothecin-20S-Ester of 3-Maleimidopropionic Acid]
- Survival (%) of HCT116 (HCT116 cells; 10 nM): 95.54%
- Survival (%) of HCT116 (HCT116 cells; 100 nM): 0%

SMILES: CC[C@@]1(OC(=O)CCN2CCN(c3ccc([N+](=O)[O-])cc3)CC2)C(=O)OCc2c1cc1n(c2=O)Cc2cc3ccccc3nc2-1 [010105 (9), Camptothecin-20S-ester of 3-[4-(4-nitrophenyl)-1-piperazinyl]propionic Acid]
- Survival (%) of HCT116 (HCT116 cells; 1 nM): 94.14%
- Survival (%) of HCT116 (HCT116 cells; 10 nM): 0%
- Survival (%) of HCT116 (HCT116 cells; 100 nM): 0%

SMILES: CC[C@@]1(OC(=O)CCN2CCN(c3ccccc3Cl)CC2)C(=O)OCc2c1cc1n(c2=O)Cc2cc3ccccc3nc2-1 [010117 (11), Camptothecin-20S-ester of 3-[4-(2-chlorophenyl)-1-piperazinyl]propionic Acid]
- Survival (%) of HCT116 (HCT116 cells; 1 nM): 100%
- Survival (%) of HCT116 (HCT116 cells; 10 nM): 0%
- Survival (%) of HCT116 (HCT116 cells; 100 nM): 0%

SMILES: CC[C@@]1(OC(=O)CCN2CCN(c3ccc(F)cc3)CC2)C(=O)OCc2c1cc1n(c2=O)Cc2cc3ccccc3nc2-1 [010124 (12), Camptothecin-20S-ester of 3-[4-(4-fluorophenyl)-1-piperazinyl]propionic Acid]
- Survival (%) of HCT116 (HCT116 cells; 1 nM): 100%
- Survival (%) of HCT116 (HCT116 cells; 10 nM): 0%
- Survival (%) of HCT116 (HCT116 cells; 100 nM): 0%

SMILES: CC[C@@]1(O)C(=O)OCc2c1cc1n(c2=O)Cc2cc3ccccc3nc2-1 [Camptothecin, (S)-4-ethyl-4-hydroxy-1H-pyrano-[3′,4′:6,7]indolizinol[1,2-b]quinoline-3,14(4H, 12H)-dione]
- solubility in water [1]: essentially insoluble
- Survival (%) of HCT116 (HCT116 cells; 10 nM): 73.72%
- Survival (%) of HCT116 (HCT116 cells; 100 nM): 0%
- MTD at 45 days (in vivo): 12 mg/kg
- antitumor activity [2]: antitumor activity

SMILES: CCc1c2c(nc3ccc(OC(=O)N4CCC(N5CCCCC5)CC4)cc13)-c1cc3c(c(=O)n1C2)COC(=O)[C@]3(O)CC [Irinotecan, 7-ethyl-10[4-(1-piperidino)-1-piperidino]carbonyloxy CPT, reference compound]
- Survival (%) of HCT116 (HCT116 cells; 100 nM): 90.52%
